The values below come from patent publication US4521428A, “Anorexigenic trifluoromethylphenyltetrahydropyridines and pharmaceutical compositions containing them” (Sanofi, priority 1982, dated 1985).

Where two headings read alike, the source gives them in different places.

The nature of data set [1]: acute toxicity in the rat (LD50) by the oral or intraperitoneal route. The following applies: in vivo; for selectivity ratio: read-out: A/B (LD50/ID50, therapeutic index). The text has this: the acute toxicity, expressed as LD50 in the rat by the oral or intraperitoneal route (A);
the ratio between the acute toxicity and the anorectic activity which expresses the therapeutic index related to the acute toxicity (A/B).

Data set [2] deals with food intake (female rats). The data set can be described thus: anorectic activity by the food intake method in the rat. Format: in vivo. The following applies: food taken in first hour, read-out: ID50 (dose inhibiting by 50% the food intake). Here is the method:
The anorectic activity was assessed by the food intake method in the rat. Female rats weighing 200 g are used, which were trained for 10 days to eat during a period of 4 hours and selected on the eighth day. At the end of the tenth day, the randomised animals were divided into a "control group" treated with the vehicle alone, and into several "treated groups". The treatment was effected by intraperitoneal or by oral route 30 minutes or 1 hour, respectively, before the presentation of the food and the amount of food taken in the course of the first hour was then measured.
the anorectic activity, expressed as oral or intraperitoneal dose inhibiting by 50% the food intake (ID50, B);

The subject of another data set is cerebral noradrenaline. The following applies: cited from earlier work.
Data set [3] relates to cerebral serotonin. The data set can be described thus: cerebral rates of serotonin compared to controls, according to Curzon and Green. Format: in vivo. The following applies: for cerebral rates of serotonin, % compared to controls: two hours after administration. The text has this: Table II hereinbelow summarizes the percent cerebral rates of serotonin, compared to the controls, after intraperitoneal or oral administration of four representative compounds of the present invention. The determination of the cerebral rates, according to Curzon and Green (Br. J. Pharmacol. 1970, 39, 653) was made two hours after the administration. Fenfluramine was used as reference compound.

In data set [4] the test system is cerebral serotonin. The following applies: doses very close to the anorectic dose; Arch. Intern. Pharmacodyn. Ther. 1967; cited from earlier work.
A further data set has as its system serotonin release. The following applies: central neurons; cited from earlier work.
The next data set concerns central nervous system. The following applies: in vivo; cited from earlier work.
The mark [5] stands for this setting: ip, 1 h, i.p., 30 minutes before food.

One may read the LD50 as the dose at which mortality reaches 50%. As to `Cl.FC(F)(F)c1cccc(C2=CCN(CCc3cccc4ccccc34)CC2)c1` [Example 6, 1-[2-(1-naphthyl)ethyl]-4-(3-trifluoromethylphenyl)-1,2,3,6-tetrahydropyridine hydrochloride], in data set [1] (os), the selectivity ratio was above 126. The molecule also came in with a 50% lethal dose (LD50) in data set [1] (po, os) above 600 mg/kg. The ED50 in data set [2] (po, os, 1 hour before food) came out at 4.75 mg/kg.

Turning to `CC(N)Cc1ccccc1` (stereo not drawn) [amphetamine], the “noradrenaline release mediating anorexia (background)” value in the data set with cerebral noradrenaline is given as “seems to be mediated by the release of cerebral noradrenaline”.

As for `CCNC(C)Cc1cccc(C(F)(F)F)c1` (stereo not drawn) [Fenfluramine, reference compound], the LD50 in data set [1] (ip) came out at 102 mg/kg; in data set [1] (po, os), 231 mg/kg. In addition, the ED50 was determined as 1.58 mg/kg in data set [2] (setting [5]) and 2.51 mg/kg in data set [2] (po, os, 1 hour before food). In the data set on cerebral serotonin [3] (in vivo), the “cerebral serotonin depletion/reduction” value is reported as “significant reduction of the cerebral serotonin”. For the same molecule, in the data set on cerebral serotonin [4], the “cerebral rates of serotonin (background)” value was “significant reduction in the cerebral rates of serotonin”. The “serotonin release (background)” value in the data set on serotonin release is given as “release of the endogenous serotonin of the central neurons”. Further, the “anorectic activity (background)” value in the data set with central nervous system is “excellent anorectic activity”. The “sedative/stimulant action (background)” value in the data set with central nervous system was “some sedative action”.

`Cl.FC(F)(F)c1cccc(C2=CCN(CCc3ccc4ccccc4c3)CC2)c1` [Example 7, 1-[2-(2-naphthyl)ethyl]-4-(3-trifluoromethylphenyl)-1,2,3,6-tetrahydropyridine hydrochloride]: in data set [1] (os), the selectivity ratio was above 76.6. The median lethal dose (LD50) in data set [1] (po, os) is above 800 mg/kg. Moreover, the ED50 in data set [2] (po, os, 1 hour before food) was determined as 10.4 mg/kg.

In the case of `Cl.[O-][n+]1ccc(CCN2CC=C(c3cccc(C(F)(F)F)c3)CC2)cc1` [Example 5, 4-[2-[4-(3-trifluoromethylphenyl)-1,2,3,6-tetrahydropyrid-1-yl]ethyl]pyridine 1-oxide hydrochloride], the selectivity ratio in data set [1] (os) was around 176. The molecule further had an LD50 in data set [1] (po, os) of around 300 mg/kg. For the same molecule, the ED50 in data set [2] (po, os, 1 hour before food) worked out at 1.71 mg/kg.

As for `Cl.FC(F)(F)c1cccc(C2=CCN(CCc3ccccn3)CC2)c1` [Example 1, 1-[2-(2-pyridyl)ethyl]-4-(3-trifluoromethylphenyl)-1,2,3,6-tetrahydropyridine hydrochloride], the LD50 in data set [1] (ip) worked out at 108 mg/kg; in data set [1] (po, os) it was 195 mg/kg. Besides, the selectivity ratio in data set [1] (ip) came to 54.2; in data set [1] (os), 56. The ED50 in data set [2] (setting [5]) stood at 1.99 mg/kg; in data set [2] (po, os, 1 hour before food) it was 3.49 mg/kg. The “cerebral rates of serotonin, % compared to controls” value (shortened to “cerebral rates of serotonin, %”) with cerebral serotonin [3] (i.p., 1.625 mg/kg) is reported as 93 ± 7%; in the data set on cerebral serotonin [3] (i.p., 3.25 mg/kg), 85 ± 1%; in the data set on cerebral serotonin [3] (i.p., 7.5 mg/kg, °° P < 0.01), 98 ± 10%.

For `Cl.FC(F)(F)c1cccc(C2=CCN(CCc3cccnc3)CC2)c1` [Example 2, 1-[2-(3-pyridyl)ethyl]-4-(3-trifluoromethylphenyl)-1,2,3,6-tetrahydropyridine hydrochloride], the selectivity ratio in data set [1] (os) turned out to be 128. The LD50 in data set [1] (po, os) came to 227 mg/kg. The ED50 in data set [2] (po, os, 1 hour before food) was 1.77 mg/kg. Besides, the “cerebral rates of serotonin, %” value in the data set with cerebral serotonin [3] (os, 2.0 mg/kg) turned out to be 113 ± 5%.

As for `Cl.FC(F)(F)c1cccc(C2=CCN(CCc3ccncc3)CC2)c1` [Example 3, 1-[2-(4-pyridyl)ethyl]-4-(3-trifluoromethylphenyl)-1,2,3,6-tetrahydropyridine hydrochloride], the selectivity ratio in data set [1] (os) was found to be 49.6. This molecule also showed a median lethal dose (LD50) in data set [1] (po, os) of 289 mg/kg. In data set [2] (po, os, 1 hour before food), the ED50 is 5.82 mg/kg.

In the case of `Cc1cccc(CCN2CC=C(c3cccc(C(F)(F)F)c3)CC2)n1.Cl` [Example 4, 1-[2-(6-methyl-2-pyridyl)ethyl]-4-(3-trifluoromethylphenyl)-1,2,3,6-tetrahydropyridine hydrochloride], the selectivity ratio in data set [1] (os) was found to be 35.6. Moreover, the 50% lethal dose (LD50) in data set [1] (po, os) worked out at 202 mg/kg. Also, the ED50 in data set [2] (po, os, 1 hour before food) came to 5.69 mg/kg. In addition, the “cerebral rates of serotonin, %” value with cerebral serotonin [3] (os, 5.69 mg/kg) was determined as 119 ± 6%.
